# Test results as given in patent publication US11091447B2, “UBE2K modulators and methods for their use” (Berg LLC, priority 2020, dated 2021).
# Test system: MIA PaCa-2 cells
# Experiment: Cellular viability assay (Cell Titer Fluor)
# Format: cell-based
# Settings: 72 hours incubation
# Protocol: Cell viability were performed using the Cell Titer Fluor™ Assays (Promega G6080). MIA PaCa-2 cells are grown in DMEM media with 10% FBS, 1% Pen/Strep/Amphotericin B. Cells are trypsinized and counted using the Nexcelom cellometer. 5,000 cells/100 μl are plated per well in Greiner black/clear 96-well plates. Cells should be within 10 passages of stock vial for use in workflow. Three distinct lineages of these cells are cultured in parallel for multiple passages and 5 full plates of each lineage are seeded for one run. Small molecule compounds are provided as 100 mM stock solutions in DMSO. Dilution series plates are prepared using 1:3 dilution to achieve a 7 point concentration on a half log scale. After addition of compounds, cells are incubated 37° C., 5% CO2 for 72 hours.
# For each test compound condition, triplicate technical replicates are used. For each reference compound, duplicate technical replicates are used. At the end of the 72-hour incubation, spent media is discarded. Then, 100 μl of GF-AFC diluted in DMEM (serum and phenol red-free) is added at 1:2000 concentration (5 μl/10 ml). Cells are incubated with reaction buffer for 1 h at 37° C. Fluorescence is then read on the plate reader with excitation wavelength of 390 nm and emission wavelength of 505 nm. All raw data are analyzed on Microsoft Excel 2010 and normalized to the DMSO vehicle control. Relative results are copied into GraphPad Prism for non-linear regression analysis and determination of IC50 and other dose curve parameters (min, max, Hill slope, etc.) using the log (inhibitor) vs. response equation. Values are as follows: A represents an IC50 of <[…], B represents an IC50 of 1 mM to 10 mM, C represents an IC50 of >10 mM.
row,Structure (SMILES),IC50
1,O=C(NCc1cc(-c2cc(F)ccc2O)[nH]n1)c1ccccc1OC(F)(F)F [Compound 52],> 10 µM

# Same assay, conditions: Homo sapiens, MIA PaCa-2, 72 h, 72 hours incubation
row,Structure (SMILES),IC50
1,COc1ccc(F)cc1-c1nc(CNC(=O)c2cc(F)ccc2OC(F)F)n[nH]1 [Comp 137],< 1 µM
2,O=C(NCc1cc(-c2cccs2)[nH]n1)c1ccccc1OC(F)F [Compound 4],> 10 µM
3,O=C(NCc1cc(-c2cccs2)[nH]n1)c1ccccc1OC(F)(F)F [Compound 5],> 10 µM
4,O=C(NCc1n[nH]c(-c2cccs2)n1)c1ccccc1CC(F)(F)F [Compound 8],> 10 µM
5,O=C(NCc1cc(-c2cccs2)[nH]n1)c1ccc(O)cc1C(F)(F)F [Compound 13],> 10 µM
6,O=C(NCc1n[nH]c(-c2cccs2)n1)c1ccccc1OC(F)(F)F [Compound 14],> 10 µM
7,O=C(NCc1n[nH]c(-c2cccs2)n1)c1ccccc1OC(F)F [Compound 15],> 10 µM
8,"Cc1cscc1-c1cc(CNC(=O)c2ccccc2OC(F)(F)F)n[nH]1 [Compound 16, N-((5-(4-methylthiophen-3-yl)-1H-pyrazol-3-yl)methyl)-2-(trifluoromethoxy) benzamide]",> 10 µM
9,Cc1sccc1-c1cc(CNC(=O)c2ccccc2OC(F)(F)F)n[nH]1 [Compound 17],> 10 µM
10,COc1ccc(C(F)(F)F)cc1-c1cc(CNC(=O)c2ccccc2OC(F)(F)F)n[nH]1 [Compound 20],> 10 µM
11,O=C(NCc1cc(-c2csc(Cl)c2)[nH]n1)c1ccccc1OC(F)(F)F [Compound 21],> 10 µM
12,O=C(NCc1cc(-c2ccsc2Cl)[nH]n1)c1ccccc1OC(F)(F)F [Compound 22],> 10 µM
13,Cc1cn[nH]c1-c1cc(CNC(=O)c2ccccc2OC(F)(F)F)n[nH]1 [Compound 24],> 10 µM
14,O=C(NCc1cc(-c2ccn[nH]2)[nH]n1)c1ccccc1OC(F)(F)F [Compound 25],> 10 µM
15,COc1ncccc1-c1cc(CNC(=O)c2ccccc2OC(F)(F)F)n[nH]1 [Compound 27],> 10 µM
16,O=C(NCc1cc(-c2cccnc2O)[nH]n1)c1ccccc1OC(F)(F)F [Compound 28],> 10 µM
17,O=C(NCc1cc(-c2cccc3cn[nH]c23)[nH]n1)c1ccccc1OC(F)(F)F [Compound 29],> 10 µM
18,CN(C)c1ccccc1-c1cc(CNC(=O)c2ccccc2OC(F)(F)F)n[nH]1 [Compound 30],> 10 µM
19,COc1ccccc1-c1cc(CNC(=O)c2ccccc2OC(F)(F)F)n[nH]1 [Compound 31],< 1 µM
20,COc1ccncc1-c1cc(CNC(=O)c2ccccc2OC(F)(F)F)n[nH]1 [Compound 33],1 to 10 µM
21,"COc1cccnc1-c1nc(CNC(=O)c2ccccc2OC(F)(F)F)n[nH]1 [Compound 34, N-((5-(3-methoxypyridin-2-yl)-1H-1,2,4-triazol-3-yl)methyl)-2-(trifluoromethoxy)benzamide]",1 to 10 µM
22,COc1ccncc1-c1nc(CNC(=O)c2ccccc2OC(F)(F)F)n[nH]1 [Compound 35],1 to 10 µM

row,Structure (SMILES),IC50
1,COc1ccsc1-c1cc(CNC(=O)c2ccccc2OC(F)(F)F)n[nH]1 [Compound 36],< 1 µM
2,COc1cnccc1-c1cc(CNC(=O)c2ccccc2OC(F)(F)F)n[nH]1 [Compound 37],> 10 µM
3,COc1ccc(OC)c(-c2cc(CNC(=O)c3ccccc3OC(F)(F)F)n[nH]2)c1 [Compound 39],> 10 µM
4,"O=C(NCc1cc(-c2cc(O)ccc2O)[nH]n1)c1ccccc1OC(F)(F)F [Compound 40, N-((5-(2,5-dihydroxyphenyl)-1H-pyrazol-3-yl)methyl)-2-(trifluoromethoxy) benzamide]",> 10 µM
5,O=C(NCc1cc(-c2cccc(O)c2O)[nH]n1)c1ccccc1OC(F)(F)F [Compound 43],> 10 µM
6,CCOc1ccc(F)cc1-c1cc(CNC(=O)c2ccccc2OC(F)(F)F)n[nH]1 [Compound 44],1 to 10 µM
7,CCOc1ccc(Cl)cc1-c1cc(CNC(=O)c2ccccc2OC(F)F)n[nH]1 [Compound 47],> 10 µM
8,COc1ccc(Cl)cc1-c1cc(CNC(=O)c2ccccc2OC(F)(F)F)n[nH]1 [Compound 48],1 to 10 µM
9,COc1c(F)cc(F)cc1-c1cc(CNC(=O)c2ccccc2OC(F)(F)F)n[nH]1 [Compound 49],1 to 10 µM
10,O=C(NCc1cc(-c2cc(F)cc(F)c2O)[nH]n1)c1ccccc1OC(F)(F)F [Compound 50],> 10 µM
11,COc1ccc(F)cc1-c1cc(CNC(=O)c2ccccc2OC(F)(F)F)n[nH]1 [Compound 51],< 1 µM
12,O=C(NCc1cc(-c2ccccc2O)[nH]n1)c1ccccc1OC(F)(F)F [Compound 53],< 1 µM
13,CCOc1ccccc1-c1nc(CNC(=O)c2ccccc2OC(F)(F)F)n[nH]1 [Compound 57],< 1 µM
14,CCOc1ccccc1-c1nc(CNC(=O)c2ccccc2OC(F)F)n[nH]1 [Compound 58],< 1 µM
15,CCOc1ccc(Br)cc1-c1nc(CNC(=O)c2ccccc2OC(F)F)n[nH]1 [Compound 59],> 10 µM
16,"O=C(NCc1n[nH]c(-c2ccccc2O)n1)c1ccccc1OC(F)F [Compound 60, 2-(Difluoromethoxy)-N-((5-(2-hydroxyphenyl)-1H-1,2,4-triazol-3-yl)methyl) benzamide]",< 1 µM
17,"O=C(NCc1n[nH]c(-c2cccc(O)c2O)n1)c1ccccc1OC(F)F [Compound 61, 2-(Difluoromethoxy)-N-((5-(2,3-dihydroxyphenyl)-1H-1,2,4-triazol-3-yl)methyl) benzamide]",1 to 10 µM
18,"COc1c(O)cccc1-c1nc(CNC(=O)c2ccccc2OC(F)F)n[nH]1 [Compound 62, 2-(difluoromethoxy)-N-((5-(3-hydroxy-2-methoxyphenyl)-1H-1,2,4-triazol-3-yl)methyl) benzamide]",1 to 10 µM
19,"COc1ccc(O)cc1-c1nc(CNC(=O)c2ccccc2OC(F)F)n[nH]1 [Compound 63, 2-(Difluoromethoxy)-N-((5-(5-hydroxy-2-methoxyphenyl)-1H-1,2,4-triazol-3-yl)methyl) benzamide]",1 to 10 µM
20,O=C(NCc1n[nH]c(-c2cc(O)ccc2O)n1)c1ccccc1OC(F)F [Compound 64],1 to 10 µM
21,O=C(NCc1cc(-c2cccs2)[nH]n1)c1ccccc1N1CCC(F)(F)CC1 [Compound 65],< 1 µM
22,O=C(NCc1cc(-c2cccs2)[nH]n1)c1ccccc1N1CCC(F)(F)C1 [Compound 66],< 1 µM

row,Structure (SMILES),IC50
1,O=C(NCc1cc(-c2cccs2)[nH]n1)c1ccccc1N1CCCCC1 [Compound 68],< 1 µM
2,O=C(NCc1cc(-c2cccs2)[nH]n1)c1ccccc1N1CCOCC1 [Compound 69],< 1 µM
3,O=C(NCc1cc(-c2cccs2)[nH]n1)c1ccccc1N1CCS(=O)(=O)CC1 [Compound 70],> 10 µM
4,CN1CCN(c2ccccc2C(=O)NCc2cc(-c3cccs3)[nH]n2)CC1 [Compound 71],1 to 10 µM
5,O=C(NCc1cc(-c2cccs2)[nH]n1)c1ccccc1N1CCCC1 [Compound 72],< 1 µM
6,O=C(NCc1n[nH]c(-c2cccs2)n1)c1ccccc1NCC(F)F [Compound 73],> 10 µM
7,O=C(NCc1n[nH]c(-c2cccs2)n1)c1ccccc1N1CC(F)(F)C1 [Compound 74],> 10 µM
8,O=C(NCc1n[nH]c(-c2cccs2)n1)c1ccccc1N1CCC(F)(F)C1 [Compound 75],< 1 µM
9,"O=C(NCc1n[nH]c(-c2cccs2)n1)c1ccccc1N1CCC(F)(F)CC1 [Compound 76, 2-(4,4-difluoropiperidin-1-yl)-N-((5-(thiophen-2-yl)-1H-1,2,4-triazol-3-yl)methyl) benzamide]",1 to 10 µM
10,O=C(NCc1cc(-c2cccs2)[nH]n1)c1cc(C(F)(F)F)ccc1N1CCCC(F)(F)C1 [Compound 78],< 1 µM
11,O=C(NCc1cc(-c2cccs2)[nH]n1)c1cccc(C(F)(F)F)c1N1CCCCC1 [Compound 79],1 to 10 µM
12,"O=C(NCc1cc(-c2cccs2)[nH]n1)c1cc(F)ccc1N1CCCCC1 [Compound 80, 5-fluoro-2-(piperidin-1-yl)-N-((5-(thiophen-2-yl)-1H-pyrazol-3-yl)methyl) benzamide]",< 1 µM
13,O=C(NCc1cc(-c2cccs2)[nH]n1)c1cc(O)ccc1N1CCCC(F)(F)C1 [Compound 81],1 to 10 µM
14,O=C(NCc1cc(-c2cccs2)[nH]n1)c1cccc(C(F)(F)F)c1N1CCCC1 [Compound 82],1 to 10 µM
15,O=C(NCc1cc(-c2cccs2)[nH]n1)c1cc(C(F)(F)F)ccc1N1CCCC1 [Compound 83],1 to 10 µM
16,N#Cc1ccc(N2CCCC2)c(C(=O)NCc2cc(-c3cccs3)[nH]n2)c1 [Compound 84],1 to 10 µM
17,N#Cc1ccc(N2CCCC(F)(F)C2)c(C(=O)NCc2cc(-c3cccs3)[nH]n2)c1 [Compound 85],< 1 µM
18,O=C(NCc1n[nH]c(-c2cccs2)n1)c1nccnc1N1CC(F)(F)C1 [Compound 86],> 10 µM
19,"O=C(NCc1n[nH]c(-c2cccs2)n1)c1nccnc1N1CCC(F)(F)C1 [Compound 87, 3-(3,3-difluoropyrrolidin-1-yl)-N-((5-(thiophen-2-yl)-1H-1,2,4-triazol-3-yl)methyl) pyrazine-2-carboxamide]",> 10 µM
20,O=C(NCc1cc(-c2cccs2)[nH]n1)c1cccnc1N1CC(F)(F)C1 [Compound 88],> 10 µM
21,O=C(NCc1n[nH]c(-c2cccs2)n1)c1nccnc1N1CCC(F)(F)CC1 [Compound 89],> 10 µM
